# Reference: patent publication US20170312207A1, “MOISTURIZING AGENT” (SHOWA DENKO K.K., priority 2014, published 2017)
# Assays:
# [1] = tested on: Normal human epidermal keratinocytes (NHEK cell); assay: Test for evaluating CE-forming ability; type: cell-based; conditions: NHEK cells, 1.8 mM Ca2+ medium, 1 μM, four days; purified water control 100
# Protocol: Normal human epidermal keratinocytes (NHEK cell manufactured by KURABO INDUSTRIES LTD.) were seeded on a 24 well plate at 1×10^5 cells/cm^2 and cultured at 37° C. under 5% CO2 to reach confluence. As a medium of NHEK cells, HuMedia-KG2 (product name, manufactured by KURABO INDUSTRIES LTD.) was used. After that, the medium was replaced to HuMedia-KG2 medium containing 1.8 mM Ca2+, the inositol derivative dissolved in purified water of Example 2 was added to the final concentration of 1 μM, and culturing was further performed for four days. As for a control, in place of the inositol derivative, the same amount of purified water was added to NHEK cells, and the cells were cultured in the same manner as above. In addition, for comparison, myo-inositol dissolved in purified water was added to NHEK cells in place of the inositol derivative, and the cells were cultured in the same manner as above. After four days of culturing, cells of each group were collected, removed of the supernatant, added with 2% sodium dodecyl sulfate (SDS)-20 mM dithiothreitol (DTT), and heated at 100° C. for 15 minutes. Next, the cells were added with 1% acetic acid-50% ethanol, centrifuged (at 15,000 rpm for five minutes), and removed of the supernatant. Next, the cells were added with 10 mM Tris-HCl-1 mM EDTA and observed with a microscope, and an amount of CE formation was counted. […]
# SPT1 gene = assay: Promoting effect on serine palmitoyltransferase expression: SPT1 gene; type: cell-based, human; conditions: SVHK cells, 10 μM, 48 hours; standardized to GAPDH; purified water control 1.00
# Protocol: (§1) Serine palmitoyltransferase (SPT) is known as a rate-limiting enzyme for ceramides synthesis. Here, effect of an inositol derivative on promoting SPT gene expression was examined by using human epidermal cells. Human epidermal cells (SVHK cells) which were established from introduction of SV40 gene into human epidermal cells, were seeded on a plastic petri dish at a seeding density of 10,000 cells/cm^2 and cultured for 24 hours in Dulbecco's Modified Eagle's Medium (DMEM, manufactured by Sigma-Aldrich Co. LLC.) containing 10% fetal bovine serum. […] Next, quantitative real-time PCR was performed using this cDNA as a template, and the expression levels of SPT gene in SVHK cells of each group were quantified. More specifically, the expression levels of SPT1, SPT2, and SPT3 genes which are subunits of SPT were quantified. In addition, the expression level of glyceraldehyde-3-phosphate dehydrogenase (GAPDH) which is a housekeeping gene in which variation is not observed in the expression by adding a compound, as an internal standard gene, was quantified, and based on the expression levels of GAPDH gene in SVHK cells of each group, the expression levels of SPT1, SPT2, and SPT3 genes were standardized. […]
# SPT3 gene = assay: Promoting effect on serine palmitoyltransferase expression: SPT3 gene; type: cell-based, human; conditions: SVHK cells, 10 μM, 48 hours; standardized to GAPDH; purified water control 1.00
# Protocol: as §1
# [2] = tested on: transglutaminase-1 (TG-1) gene; assay: Promoting expression of CE-forming-related factor: transglutaminase-1 (TG-1) gene, quantitative real-time PCR; type: cell-based, human; conditions: SVHK cells, 1 μM, 48 hours; standardized to GAPDH; purified water control 1.00
# Protocol: (§2) Loricrin, involucrin, and transglutaminase-1 are known as CE-forming-related factors. Here, effect of an inositol derivative on promoting expression of CE-forming-related factors was examined by using human epidermal cells. Human epidermal cells (SVHK cells) which were established from introduction of SV40 gene into human epidermal cells, were seeded on a plastic petri dish at a seeding density of 10,000 cells/cm^2 and cultured for 24 hours in Dulbecco's Modified Eagle's Medium (DMEM, manufactured by Sigma-Aldrich Co. LLC.) containing 10% fetal bovine serum. […] Next, quantitative real-time PCR was performed using this cDNA as a template, and the expression levels of loricrin gene, involucrin gene, and transglutaminase-1 (TG-1) gene in SVHK cells of each group were quantified, respectively. In addition, the expression level of glyceraldehyde-3-phosphate dehydrogenase (GAPDH) which is a housekeeping gene in which variation is not observed in the expression by adding a compound, as an internal standard gene, was quantified, and based on the expression levels of GAPDH gene in SVHK cells of each group, the expression levels of loricrin gene, involucrin gene, and TG-1 gene were standardized. […]
# loricrin gene = assay: Promoting expression of CE-forming-related factor: loricrin gene, quantitative real-time PCR; type: cell-based, human; conditions: SVHK cells, 1 μM, 48 hours; standardized to GAPDH; purified water control 1.00
# Protocol: as §2
# AQP3 gene = assay: Promoting effect on AQP3 expression, quantitative real-time PCR; type: cell-based, human; conditions: SVHK cells, 1 μM, 48 hours; standardized to GAPDH; purified water control 1.00
# Protocol: (§3) Human epidermal cells (SVHK cells) which were established from introduction of SV40 gene into human epidermal cells, were seeded on a plastic petri dish at a seeding density of 10,000 cells/cm^2 and cultured for 24 hours in Dulbecco's Modified Eagle's Medium (DMEM, manufactured by Sigma-Aldrich Co. LLC.) containing 10% fetal bovine serum. Next, to the medium of SVHK cells, the inositol derivatives dissolved in purified water of Examples 1 to 6 and Comparative Example 1 were added to the final concentration of 1 μM, and culturing was further performed for 48 hours. As for a control, in place of the inositol derivative, the same amount of purified water was added to SVHK cells, and the cells were cultured in the same manner as above. […] Next, quantitative real-time PCR was performed using this cDNA as a template, and the expression levels of AQP3 gene in SVHK cells of each group were quantified. In addition, the expression level of glyceraldehyde-3-phosphate dehydrogenase (GAPDH) which is a housekeeping gene in which variation is not observed in the expression by adding a compound, as an internal standard gene, was quantified, and based on the expression levels of GAPDH gene in SVHK cells of each group, the expression levels of AQP3 gene were standardized. […]
# involucrin gene = assay: Promoting expression of CE-forming-related factor: involucrin gene, quantitative real-time PCR; type: cell-based, human; conditions: SVHK cells, 1 μM, 48 hours; standardized to GAPDH; purified water control 1.00
# Protocol: as §2
# SPT2 gene = assay: Promoting effect on serine palmitoyltransferase expression: SPT2 gene; type: cell-based, human; conditions: SVHK cells, 10 μM, 48 hours; standardized to GAPDH; purified water control 1.00
# Protocol: as §1
# filaggrin gene = assay: Promoting effect on filaggrin gene expression, quantitative real-time PCR; type: cell-based, human; conditions: SVHK cells, 10 μM, 48 hours; standardized to GAPDH; purified water control 1.00
# Protocol: as §3, with “Effect of an inositol derivative on promoting filaggrin gene expression was examined by using human epidermal cells. Human epidermal” for “Human epidermal”, “concentration of 10 μM, and” for “concentration of 1 μM, and”, “levels of filaggrin gene in” for “levels of AQP3 gene in”, “levels of filaggrin gene were” for “levels of AQP3 gene were”
structure (smiles),measurement,setting,value
"O[C@H]1[C@H](O)[C@@H](O)[C@H](O)[C@@H](O)[C@H]1O [Myo-inositol, myo-inositol]",Amount of CE formation (relative value),[1],123
same,Expression levels of gene (relative value) SPT1,SPT1 gene,2.01
same,Expression levels of gene (relative value) SPT3,SPT3 gene,1.64
same,Expression levels of gene (relative value) TG-1,[2],1.96
same,Expression levels of gene (relative value) lorierin,loricrin gene,0.39
same,Expression levels of AQP3 gene (relative value),AQP3 gene,0.83
same,Expression levels of gene (relative value) involucrin,involucrin gene,2.42
same,Expression levels of gene (relative value) SPT2,SPT2 gene,2.49
same,Expression levels of filaggrin gene (relative value),filaggrin gene,5.94
